Article PMC5412920 (Journal of Clinical Pharmacology, 2016)
Like-named read-outs stand apart in the source and are kept apart here.

Assays:
[1] = type: in vivo, human; details: hepatic impairment study; largely below the lower limit of quantification
MEK1 = details: cited from earlier work
[2] = type: in vivo, human; details: renal impairment study; largely below the lower limit of quantification

plasma concentrations [1]: < 2 ng/mL | plasma concentrations [2]: < 2 ng/mL
Compound: Cn1cnc2c(F)c(Nc3ccc(Br)cc3Cl)c(C(N)=O)cc21 [selumetinib amide]
less active than selumetinib (MEK1): up to 50 fold
